Ends that are not written are not given here.
Legend:
[1] = tested on: methicillin resistant Staphylococcus aureus (MRSA) biofilm; settings: approximate peptide concentration […] (around 3 μg/ml); compared to untreated samples
Method in brief: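 Static biofilm assay: 1/100 dilutions of overnight cultures grown in BM2 medium (pH 7, glucose, Casamino Acids) or Luria Broth with peptide added at time zero. After 22–46 h, adherent biofilm was stained with crystal violet and read at 595 nm. Some peptides were also tested on K. pneumoniae under flow in a Bioflux system.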

[2] = tested on: human peripheral blood mononuclear cells (MCP-1); assay: SPOT-synthesized derivative screen: production of chemokine MCP-1; assay type: cell-based; settings: Table 12, No LPS, human PBMC, peptide at ~18-24 μM; for MCP1: background subtracted 139 (HH2 derivatives), 170 (1018 derivatives), 242 (1002 and hybrid peptides) pg/ml
Method in brief: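 PBMC from heparinized healthy-donor venous blood, Ficoll-separated, cultured at 0.75 to 1×10^6 cells/ml, 37 °C, 5% CO2, under the treatment regimens. MCP-1 in cell-free supernatants measured by capture ELISA.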

[3] = tested on: LPS-stimulated human peripheral blood mononuclear cells (IL1-β); assay type: cell-based; settings: Table 12, cells stimulated with 10 ng/ml LPS; for IL1β Production: LPS alone 1313 (HH2 derivatives), 1927 (1018 derivatives), 2455 (1002 and hybrid peptides) pg/ml

Substance | % Biofilm inhibition [1] [%] | Fold increase in MCP1 cf. untreated cells [2] | MCP1 [2] [pg/mL] | Fold change in IL1β relative to no peptide LPS stimulated cells [3] | IL1β Production [3] [pg/mL]
HH2-W10: single substituted HH2 peptide (VQLRIRVAVWRA-NH2) | 48 | 15 | 2448 | 1.02 | 1344
HH2-I11: single substituted HH2 peptide (VQLRIRVAVIIA-NH2) | 55 | 60 | 9977 | 1.07 | 1402
HH2-A10: single substituted HH2 peptide (VQLRIRVAVARA-NH2) | 53 | 2.5 | 258 | 1.70 | 2234
1018-G2: single substituted 1018 peptide (VGLIVAVRIWRR-NH2) [Peptide 1018-G2] | 59 | 2.6 | 267 | 0.10 | 127
1018-R5: single substituted 1018 peptide (VRLIRAVRIWRR-NH2) [Peptide 1018-R5] | 4 | 0.8 | -41 | 1.50 | 1973
HH2-Q7: single substituted HH2 peptide (VQLRIRQAVIRA-NH2) | 21 | 3.9 | 488 | 1.00 | 1316
1018-I7: single substituted 1018 peptide (VRLIVAIRIWRR-NH2) [Peptide 1018-I7] | 63 | 5.2 | 714 | 0.10 | 127
HH2-A6: single substituted HH2 peptide (VQLRIAVAVIRA-NH2) | 41 | 1.8 | 137 | 1.06 | 1391
1002-G7: single substituted 1002 peptide (VQRWLIGWRIRK-NH2) [Peptide 1002-G7] | 54 | 0.9 | -36.2 | 0.14 | 353
1002-A2: single substituted 1002 peptide (VARWLIVWRIRK-NH2) [Peptide 1002-A2] | 68 | 2.0 | 245.4 | 0.05 | 127
1002-V4: single substituted 1002 peptide (VQRVLIVWRIRK-NH2) [Peptide 1002-V4] | 69 | 10.5 | 2300.2 | 0.08 | 190
1018-K9: single substituted 1018 peptide (VRLIVAVRKWRR-NH2) [Peptide 1018-K9] | 60 | 1.1 | 15 | 0.23 | 300
